{
  "source": "patent US8580842B2",
  "about": "“Heteroaryl-substituted 1,3-dihydroindol-2-one derivatives and medicaments containing them” (Abbott GmbH & Co. KG, priority 2003, dated 2013)",
  "note": "Structures can show the parent of a compound that is named as a salt.",
  "data": [
    {"target": "T1, human V1b receptors (Homo sapiens, UniProt P47901)", "T1 construct": "expressed in transfected cells; host or cells: CHO-K1 (membrane preparation V1b-3H2)", "T1 sequence (P47901 1-424)": "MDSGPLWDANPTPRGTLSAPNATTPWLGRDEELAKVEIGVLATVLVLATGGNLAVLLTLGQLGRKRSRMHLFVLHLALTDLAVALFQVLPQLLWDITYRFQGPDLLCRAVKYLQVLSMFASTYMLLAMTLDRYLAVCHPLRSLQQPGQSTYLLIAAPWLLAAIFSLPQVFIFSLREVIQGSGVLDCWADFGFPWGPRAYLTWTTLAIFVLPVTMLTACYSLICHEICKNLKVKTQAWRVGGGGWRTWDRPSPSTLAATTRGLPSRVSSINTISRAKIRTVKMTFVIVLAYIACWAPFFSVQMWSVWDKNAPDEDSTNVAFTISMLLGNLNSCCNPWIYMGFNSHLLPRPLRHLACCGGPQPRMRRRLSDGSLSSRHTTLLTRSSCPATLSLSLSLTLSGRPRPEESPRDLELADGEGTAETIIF", "experiment": "Vasopressin V1b receptor binding assay", "details": "membranes from CHO-K1 cells expressing human V1b receptors, displacement of 1.5 nM 3H-AVP; read-out: Binding affinity for the vasopressin V1b receptor", "how_it_was_run": "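Membranes from CHO-K1 cells stably expressing human V1b incubated with 1.5 nM ³H-AVP and test compound in 50 mM Tris, 10 mM MgCl2, 0.1% BSA, pH 7.4, 60 min at room temperature; non-specific binding with 10^−6 M AVP. Filtration and scintillation counting in triplicate; binding parameters by non-linear regression.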", "units": {"Ki": "nM"}, "values": [
      {"smiles": "COc1ccccc1C1(N2C[C@H](O)C[C@H]2C(=O)N(C)C)C(=O)N(S(=O)(=O)c2cccs2)c2ccc(Cl)cc21", "note": "(single isomer, unassigned) [Example 29]", "Ki": "< 50"},
      {"smiles": "COc1ccc(S(=O)(=O)N2C(=O)C(c3cccnc3OC)(N3C[C@H](O)C[C@H]3C(=O)N(C)C)c3cc(Cl)ccc32)c(OC)c1", "note": "(single isomer, unassigned) [Example 5]", "Ki": "< 50"},
      {"smiles": "COc1ccc(S(=O)(=O)N2C(=O)C(OC(=O)N3CCC(N4CCN(C)CC4)CC3)(c3cccnc3OC)c3cc(C)ccc32)c(OC)c1", "note": "(stereo not drawn) [Example 107, 4-(4-Methyl-piperazin-1-yl)-piperidine-1-carboxylic acid 1-(2,4-dimethoxy-benzenesulfonyl)-3-(2-methoxy-pyridin-3-yl)-5-methyl-2-oxo-2,3-dihydro-1H-indol-3-yl ester]", "Ki": "< 50"},
      {"smiles": "CCOc1ccccc1C1(OC(=O)N2CCN(C3CCN(C)CC3)CC2)C(=O)N(S(=O)(=O)c2ccc(C)cn2)c2ccc(Cl)cc21", "note": "(stereo not drawn) [Example 145, 4-(1-Methyl-piperidin-4-yl)-piperazine-1-carboxylic acid 5-chloro-3-(2-ethoxy-phenyl)-1-(5-methyl-pyridine-2-sulfonyl)-2-oxo-2,3-dihydro-1H-indol-3-yl ester]", "Ki": "< 50"},
      {"smiles": "COc1ccc(S(=O)(=O)N2C(=O)C(OC(=O)N3CCN(C4CCN(C)CC4)CC3)(c3ccccn3)c3cc(Cl)ccc32)c(OC)c1", "note": "(stereo not drawn) [Example 104, 4-(1-Methyl-piperidin-4-yl)-piperazine-1-carboxylic acid 5-chloro-1-(2,4-dimethoxy-benzenesulfonyl)-2-oxo-3-pyridin-2-yl-2,3-dihydro-1H-indol-3-yl ester trishydrochloride]", "Ki": "< 50"},
      {"smiles": "COc1ccccc1C1(N2C[C@H](O)C[C@H]2C(=O)N(C)C)C(=O)N(S(=O)(=O)c2cnc(Cl)c(Br)c2)c2ccc(Cl)cc21", "note": "(stereo partly drawn) [Example 59, (2S,4R)-1-[5-Chloro-1-(5-bromo-6-chloropyridine-3-sulfonyl)-3-(2-methoxy-phenyl)-2-oxo-2,3-dihydro-1H-indol-3-yl]-4-hydroxy-pyrrolidine-2-carboxylic acid dimethylamide]", "Ki": "> 500"},
      {"smiles": "COc1ccccc1S(=O)(=O)N1C(=O)C(c2cccnc2OC)(N2C[C@H](O)C[C@H]2C(=O)N(C)C)c2cc(Cl)ccc21", "note": "(single isomer, unassigned) [Example 241]", "Ki": "50 to 500"},
      {"smiles": "COc1ccc(S(=O)(=O)N2C(=O)C(c3cccnc3OC)(N3CC[C@H]3C(=O)N(C)C)c3cc(Cl)ccc32)c(OC)c1", "note": "(single isomer, unassigned) [Example 255]", "Ki": "50 to 500"},
      {"smiles": "COc1ccccc1C1(N2C[C@H](O)C[C@H]2C(=O)N(C)C)C(=O)N(S(=O)(=O)c2sccc2OC)c2ccc(Cl)cc21", "note": "(single isomer, unassigned) [Example 256]", "Ki": "< 50"}
    ]},
    {"system": "Male Sprague Dawley rats", "experiment": "Rat forced swim test", "type": "in vivo", "details": "ip; rat forced swim model, intraperitoneal route, three times before re-testing; read-out: ED50 (decrease of immobility time)", "excerpt": "Antidepressant Effects of Compounds of this Invention in the Rat Forced Swim Model\nThe potential antidepressant effects of some examples of this invention were examined in the rat forced swim test. When rats are forced to swim in a cylinder from which no escape is possible they readily adopt a characteristic immobile posture and make no further attempts to escape except for small movements needed to keep floating. The immobility is considered to reflect a ‘depressive mood’ (Porsolt R D, LePichon M, Jalfre M (1977). Depression: a new animal model sensitive to antidepressant treatment. Nature 266, 730-732.), in which animals cease to struggle to escape the aversive situation. The immobility induced by the procedure is influenced by a wide variety of antidepressants (Porsolt R D, Lenegre A, McArthur R A (1991). Pharmacological models of depression. In: Animal models in Psychopharmacology. B. Olivier, J. Mos, J. L. Slangen (eds) Birkhauser Verlag, Basel, pp. 137-159.) and has a good predictive validity in that it detects antidepressants with different mechanisms of action. Administration of antidepressants such as fluoxetine increases the time an animal struggles (decreases the immobility time) when forced to swim in a confined space. Lack of struggling is thought to represent a state of despair.\nProcedure: Male Sprague Dawley rats (Janvier) weighing 160-200 gram (n=6) were placed individually into a glass water tank (40 cm×21.5 cm) filled with tap water (25° C.) up to 18 cm. This pre-test lasted for 15 min. Twenty-four hours later, animals were re-tested for 5 min in the same water tank while the total immobility time, swimming time and climbing time were recorded. Rats were considered immobile when they made no further attempts to escape, except for movements necessary to keep their heads above water (Porsolt R D, Anton G, Blavet N & Jalfre M. (1978). Behavioural despair in rats: a new model sensitive to antidepressant treatments. European Journal of Pharmacology 47, 379-391). The absence of hind limb movements was recorded as immobility using a stopwatch by a single observer. […]", "units": {"ED50": "mg/kg"}, "values": [
      {"smiles": "COc1ccccc1C1(N2C[C@H](O)C[C@H]2C(=O)N(C)C)C(=O)N(S(=O)(=O)c2cccs2)c2ccc(Cl)cc21", "note": "(single isomer, unassigned) [Example 29]", "ED50": "< 30"},
      {"smiles": "COc1ccc(S(=O)(=O)N2C(=O)[C@@](c3ccccc3OC)(N3C[C@H](O)C[C@H]3C(=O)N(C)C)c3cc(Cl)ccc32)c(OC)c1", "note": "[SSR149415, reference compound]", "ED50": "> 30"},
      {"smiles": "COc1ccc(S(=O)(=O)N2C(=O)C(c3cccnc3OC)(N3C[C@H](O)C[C@H]3C(=O)N(C)C)c3cc(Cl)ccc32)c(OC)c1", "note": "(single isomer, unassigned) [Example 5]", "ED50": "< 30"}
    ]}
  ]
}
